Measurements reported in PubChem BioAssay (NCI).
Where “and” joins values, the source holds several entries; their conditions need not be identical. Identical values can stand only once.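 Where inhibition never reached the appropriate level, the endpoint shown equals the highest concentration tested. Otherwise, values were interpolated linearly from a five-concentration, 48-hour dose response in 96-well plates. TGI: concentration producing complete growth inhibition.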

Assays:
Test in all cases: DTP human tumour cell line panel, 48 h
OVCAR-3 ovarian = system: OVCAR-3 ovarian
OVCAR-8 ovarian = system: OVCAR-8 ovarian
LOX IMVI melanoma = system: LOX IMVI melanoma
IGROV1 ovarian = system: IGROV1 ovarian
SF-539 CNS = system: SF-539 CNS
A498 renal = system: A498 renal
PC-3 prostate = system: PC-3 prostate
SW-620 colon = system: SW-620 colon
MOLT-4 leukemia = system: MOLT-4 leukemia
UACC-257 melanoma = system: UACC-257 melanoma
OVCAR-5 ovarian = system: OVCAR-5 ovarian
SNB-19 CNS = system: SNB-19 CNS

SMILES | TGI (OVCAR-3 ovarian) | TGI (OVCAR-8 ovarian) [µM] | TGI (LOX IMVI melanoma) [µM] | TGI (IGROV1 ovarian) [µM] | TGI (SF-539 CNS) [µM] | TGI (A498 renal) [µM] | TGI (PC-3 prostate) [µM] | TGI (SW-620 colon) [µM] | TGI (MOLT-4 leukemia) | TGI (UACC-257 melanoma) [µM] | TGI (OVCAR-5 ovarian) [µM] | TGI (SNB-19 CNS) [µM]
O=C1NC(N/N=C\C(O)C(O)C(O)CO)=N/C1=C/c1ccc(Cl)cc1 (stereo unspecified) | 58.3 µM and 91.9 µM | > 100 | > 100 | > 100 | > 100 | > 100 | > 100 | > 100 | 55.6 µM and 61.4 µM | > 100 | > 100 | > 100
N#Cc1c(SCc2ccccc2)nc(-c2ccccc2)[nH]c1=S | 36.3 µM | 76.7 | 63.9 | 79.4 | 56.6 | 63.8 | 35.2 | 60 | 85.2 µM | > 100 | 53.6 | > 100
COc1ccc2[nH]c(Cl)c(/C=C3/C(=O)Nc4cc(C)c(OC)cc43)c2c1 | 6.46 µM | 25.7 | 17.5 | 17.1 | 4.8 | 19.2 | 16.1 | 18.1 | > 100 µM | 23.6 | 27.2 | 22.2
C=CCOc1ccccc1N=N/C(C#N)=N\Nc1ccccc1OCC=C | > 100 µM | > 100 | > 100 | > 100 | > 100 | > 100 | > 100 | > 100 | > 100 µM | > 100 | > 100 | > 100
CN(C(=O)Cc1ccc(Cl)c(Cl)c1)[C@H]1CCCC[C@@H]1[N+]1(C)CCCC1 | > 100 µM | > 100 | > 100 | > 100 | > 100 | > 100 | > 100 | > 100 | > 100 µM | > 100 | > 100 | > 100
O=C(/C=C/c1ccsc1)c1ccco1 | 26.9 µM | 24 | 14.5 | 22.8 | 32.5 | 17.8 | 28.5 | 22 | 36 µM | 38.6 | 34.9 | 28.8
CCOC(=O)Nc1c(C#N)[n+]([O-])c2cc(Cl)c(Cl)cc2[n+]1[O-] | 42.6 µM | 37.2 | 27.9 | 28.6 | 30.9 | 25 | 31.8 | 56.5 | 28.7 µM | 36.1 | – | 65.9
c1ccc(C2=Nc3nc4ccccc4n3C(c3ccccc3)C2)cc1 (stereo unspecified) | > 100 µM | > 100 | > 100 | > 100 | > 100 | > 100 | > 100 | > 100 | > 100 µM | > 100 | > 100 | > 100
COC(=O)C(CCc1ccccc1I)C1=CCC2(CC1)OCCO2 (stereo unspecified) | > 100 µM | > 100 | > 100 | > 100 | > 100 | > 100 | > 100 | > 100 | > 100 µM | > 100 | 95.8 | > 100
NC(=Nc1ccc(O)cc1)S(=O)(=O)O | > 100 µM | > 100 | > 100 | > 100 | > 100 | > 100 | > 100 | > 100 | > 100 µM | > 100 | > 100 | > 100
CN(C)c1nc(NC23CC4CC(CC(C4)C2)C3)nc(N(C)C)n1 | > 76.2 µM | > 100 | 17.8 | – | > 79.6 | > 100 | > 42.2 | > 56.2 | > 57.3 µM | > 100 | > 100 | > 40.1
COc1cc(OC)c2c(O)c3c(cc2c1)CC(C)(C)CC3=O | > 100 µM | > 100 | > 100 | > 100 | > 100 | > 100 | > 100 | > 100 | > 100 µM | > 100 | > 100 | > 100
O=C1/C(=C\c2cccc(Oc3ccccc3)c2)S(=O)(=O)C(c2ccccc2)N1c1ccccc1Cl (stereo unspecified) | 64.3 µM | > 100 | > 100 | > 100 | 34.3 | > 100 | > 100 | > 100 | 48.9 µM | > 100 | > 100 | 64
CC(C)[C@@H]1CC[C@@H](C)C[C@H]1OC(=O)/C=C1/C2C=CC(O2)C1C(=O)O[C@@H]1C[C@H](C)CC[C@H]1C(C)C (stereo partly specified) | > 100 µM | > 100 | > 100 | > 100 | > 100 | > 100 | > 100 | > 100 | > 100 µM | > 100 | > 100 | > 100
O=[N+]([O-])/C(C(Cl)=C(Cl)Cl)=C1\NCCO1 | > 100 µM | > 100 | > 100 | > 100 | > 100 | > 100 | > 100 | – | > 100 µM | > 100 | > 100 | > 100
COC1=C(N=[N+]=[N-])C(=O)c2ncccc2C1=O | 15.5 µM | 7.56 | 7.78 | 13.1 | 30.5 | 30.9 | 29 | 4.24 | 2.86 µM | 13 | 33.8 | 30.9
NC(=O)c1nnc2cc(F)ccc2c1N | > 100 µM | > 100 | > 100 | > 100 | > 100 | > 100 | > 100 | > 100 | > 100 µM | > 100 | > 100 | > 100
COC(=O)c1cc(NC(=O)c2cc(NC(=O)c3cc([N+](=O)[O-])cn3C)cn2C)cn1C | > 100 µM | > 100 | > 100 | – | > 100 | > 100 | > 100 | > 100 | > 100 µM | – | > 100 | > 100
